{"source": "patent US6528685B2", "about": "(Teva Pharmaceutical Industries, Ltd., priority 1994, dated 2003)", "key": {"[1]": {"assay": "in vivo", "conditions": "mouse, in vivo, ip", "procedure": "(§1) Neurotoxicity of the claimed agents was also assessed in mice (i.p. administration) by the rotorod ataxia test and/or in rats (p.o. administration) by positional sense test and gait stance test. […] The term quantitating the neurotoxicity is the medial neurological toxic dose (TD50), was determined in the above tests."}, "[2]": {"tested_on": "mice", "assay": "Maximal electroshock (MES) model, mice", "conditions": "Mus musculus, ip, read-out: MICE MES ED50"}, "[3]": {"assay": "Neurotoxicity in rats, positional sense test and gait stance test", "conditions": "rat, in vivo, po", "procedure": "as §1"}, "[4]": {"tested_on": "rats", "assay": "Maximal electroshock (MES) model, rats", "conditions": "Rattus norvegicus, po, read-out: RATS MES 50"}, "[5]": {"tested_on": "rats", "assay": "Closed head injury in rats, Experiment 4E (therapeutic window)", "assay_type": "in vivo, rat", "conditions": "1 mg/kg", "procedure": "(§2) After the second evaluation of motor function, the animals were sacrificed and the brains were removed. A piece of tissue was weighed to yield a wet weight (WW), then dried in an oven for 24 hours at 95 C. and re-weighed to yield a dry weight(DW). Percentage water content in the tissue was calculated as (WW-DW)×100/WW."}, "[6]": {"tested_on": "rats", "assay": "Closed head injury in rats, Experiment 4C (dose range)", "assay_type": "in vivo, rat", "conditions": "doses 0.03 mg/kg to 3 mg/kg", "procedure": "as §2"}, "[7]": {"tested_on": "hypoxic rat", "assay": "Amphetamine-induced stereotype behavior in hypoxic rat, Experiment 2B", "assay_type": "in vivo", "procedure": "(§3) Wistar male rats, 15-19 month-old, were exposed to a single hypoxic episode as described above. […] Rats pretreated for 29 days with daily doses of the test drugs (0.5 mg/kg), received a sub-cutaneous (s.c.) injection of D-amphetamine sulfate at a dose of 0.5 mg/kg. D-amphetamine is known to cause an enhancement of the effects of CNS dopamine by a mechanism involving dopamine release, and blockage of its uptake and its metabolism by MAO. The behavioral manifestation of amphetamine action is a stereotypic pattern of lateral head movements. Counts of lateral head movements were taken over two successive intervals of 1 min each, 45-60 min after the injection of amphetamine and then averaged.\nThe procedure of the second Experiment 2B was similar to the one used in Experiment 2A with the following changes:\n1) Animals: 12 month-old rats.\nThe drugs were given by i.p. injection.\n3) Duration of the treatment: 14 days."}, "[8]": {"tested_on": "rats", "assay": "Closed head injury in rats, Experiment 4D (times of administration)", "assay_type": "in vivo, rat", "conditions": "RAI 1 mg/kg; times of administration: 0, 4, 8, 12 h", "procedure": "as §2"}, "[9]": {"tested_on": "hypoxic rat", "assay": "α-MpT-induced hypokinesia in hypoxic rat, Experiment 1A", "assay_type": "in vivo", "conditions": "hypoxia group, ten hour observation", "procedure": "Wistar male rats, 15-19 month-old, were exposed to a single hypoxic episode which is assumed to decrease the level of dopamine in the brain. […] The drugs were administered by gavage, using a special syringe equipped with rounded tip that could be directed into the stomach. The dose was contained in 0.3-0.5 mL of distilled water. The rats were pretreated for 70-80 days with daily doses of the test drugs and received intra-peritoneal (i.p.) α-MpT (α-methyl-p-tyrosine) at a dose of 100 mg/kg in 0.3-0.5 mL saline. Controls received saline. α-MpT is assumed to inhibit the formation of L-Dopa from tyrosine and, consequently the formation of dopamine itself. Lack of central dopamine is expressed as hypokinesia. Following the injection of α-MpT, motor activity was recorded for the duration of 10 hours. Locomotion scores were taken in seven fully-computerized cages (26×25 cm) having a grid of infra-red beams at 4 cm-intervals.\nCrossing of a beam initiated an electric signal which was fed into a computer. The number of crossings over a given period provided a measure of locomotion.\nThe records gave two data categories: (a) “small movements” originating in stationary activities such as grooming and scratching and (b) “big movements” originating in ambulation and recorded as the simultaneous crossing of more than two beams. “Total movements” include both categories.\nCounts of motor activity in the presence of α-MpT were related as percent with respect to counts in its absence in the corresponding control group (unlesioned or hypoxia-lesioned). Motor activity counts of drug-treated rats were related to the hypoxia saline-treated as 100%. All behavioral tests were performed 90-120 min. after administration of the last dose of the test compound."}, "[10]": {"tested_on": "hypoxia-lesioned rats", "assay": "Water maze working memory test, Experiment 3B", "assay_type": "in vivo, rat", "conditions": "rat, in vivo", "source_text": "The apparatus used consists of a circular water tank 160 cm in diameter filled with water to a depth of 38 cm. The water was made cloudy by the addition of milk powder. A clear Plexiglass 15 cm platform, supported by a movable stand rest on the bottom of the tank was submerged to a depth of 2 cm from the water surface. Normally a swimming rat cannot perceive the location of the platform but it may recall it from a previous experience and training, unless it suffers from some memory impairment. The time taken to locate the platform is measured in seconds and referred to as the latency. During the experiment all orientational cues such as ceiling lights etc. remained unchanged. Longer latencies are observed with rats with some impairment to their memory.\nEach rat was given two trails a day for four days, entering the pool from the same point of entry each day. The position of the platform was changed daily to one of four predetermined positions. Each rat was tested twice each day over the four days, referred to as runs 1 and 2 on sessions I-IV. Initially the rat was placed on the platform for 60 seconds. It was then removed and placed at the point of entry and allowed a maximum of 120 seconds to locate the platform (run 1). The second run for that day followed 60 seconds later (run 2). In the second run the rat is expected to find the platform much sooner, having benefitted from its earlier experience. […] The average latency of run 1 in four sessions on four different days was then related to the corresponding parameter of run 2. The smaller the ratio of […], the better the short range learning score.\nTable 8. […] The data are the latencies in seconds±SEM that it took a given group to locate a submerged and invisible platform the location of which was shifted from one session to the other. The time interval between sessions was one day, and that between successive runs was 60 seconds. (n=7-8 rats per group)"}, "[11]": {"tested_on": "hypoxic rat", "assay": "Amphetamine-induced stereotype behavior in hypoxic rat, Experiment 2A", "assay_type": "in vivo", "conditions": "hypoxic group, with respect to hypoxia and amphetamine control", "procedure": "as §3"}, "[12]": {"target": "T1, MAO-B (Rattus norvegicus, UniProt P19643)", "T1 sequence (P19643 1-520)": "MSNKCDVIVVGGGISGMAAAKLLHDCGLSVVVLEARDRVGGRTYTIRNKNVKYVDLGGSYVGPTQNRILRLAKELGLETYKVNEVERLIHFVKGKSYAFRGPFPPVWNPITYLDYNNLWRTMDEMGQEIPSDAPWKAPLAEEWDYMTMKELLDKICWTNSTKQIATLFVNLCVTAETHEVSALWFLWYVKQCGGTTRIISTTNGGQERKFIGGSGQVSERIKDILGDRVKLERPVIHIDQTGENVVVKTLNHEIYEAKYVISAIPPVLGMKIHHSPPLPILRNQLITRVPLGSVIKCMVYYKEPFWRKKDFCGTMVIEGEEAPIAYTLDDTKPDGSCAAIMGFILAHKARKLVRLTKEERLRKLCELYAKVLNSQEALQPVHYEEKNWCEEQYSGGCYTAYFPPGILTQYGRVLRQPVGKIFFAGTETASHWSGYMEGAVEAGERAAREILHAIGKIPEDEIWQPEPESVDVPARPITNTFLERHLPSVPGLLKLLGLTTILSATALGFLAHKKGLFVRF", "conditions": "RAI: only chronic treatment; deprenyl: acute or chronic treatment", "source_text": "(§4) The brains of some rats from each experimental group in Exp. 1 (chronic treatment of 80 days) and Exp. 2 (acute treatment of 14 days) were ex vivo analyzed for MAO-A and MAO-B activity."}, "[13]": {"target": "T2, MAO-A (Rattus norvegicus, UniProt P21396)", "T2 sequence (P21396 1-526)": "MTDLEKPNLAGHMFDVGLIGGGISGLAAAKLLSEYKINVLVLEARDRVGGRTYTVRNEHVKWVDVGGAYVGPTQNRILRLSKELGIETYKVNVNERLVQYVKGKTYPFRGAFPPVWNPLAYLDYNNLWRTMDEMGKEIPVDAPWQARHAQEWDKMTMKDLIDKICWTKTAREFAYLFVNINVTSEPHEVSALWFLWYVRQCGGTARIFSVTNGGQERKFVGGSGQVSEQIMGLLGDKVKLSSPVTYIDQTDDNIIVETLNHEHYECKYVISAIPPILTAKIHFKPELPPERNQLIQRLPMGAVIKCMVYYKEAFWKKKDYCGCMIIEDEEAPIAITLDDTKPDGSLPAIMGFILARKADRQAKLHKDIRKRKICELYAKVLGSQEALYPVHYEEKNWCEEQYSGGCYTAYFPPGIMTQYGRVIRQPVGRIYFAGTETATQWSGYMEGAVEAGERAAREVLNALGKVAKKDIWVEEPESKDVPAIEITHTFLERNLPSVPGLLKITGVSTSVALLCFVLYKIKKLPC", "conditions": "chronic or acute treatment", "source_text": "as §4"}, "[14]": {"tested_on": "hypoxic rat", "assay": "Passive avoidance test in hypoxic rat, Experiment 3A", "assay_type": "in vivo", "conditions": "hypoxic rats", "procedure": "Wistar male rats, 15-19 month-old, were exposed to a single hypoxic episode as described above. […] The passive avoidance test was performed on day 13 after initiation the drug treatment. The apparatus consisted of a lit chamber that can be separated from a dark chamber by a sliding door. At training, a rat is placed in the lit chamber for 30 seconds, then the door is opened. The rat moves to the dark chamber after a short delay—the latency, that is recorded. Upon entry into the dark chamber, the door is shut closed and a 0.3-mA footshock is delivered for 3 seconds by a Grass S-88 stimulator. Retention of the experience is determined after 48 hours by repeating the test and recording the latency to an arbitrary maximum of 300 seconds. Longer latencies are ascribed to retention of memory and improved cognition."}}}
{"compound": "CC(=O)NC1CCc2ccc(F)cc21", "note": "(racemic) [Compound 22, (rac)-6-Fluoro-N-acetyl-1-aminoindan]", "values": [{"measurement": "TD50", "setting": "[1]", "result": "> 100", "unit": "mg/kg"}, {"measurement": "ED50", "setting": "[2]", "result": "< 100", "unit": "mg/kg"}, {"measurement": "TD50", "setting": "[3]", "result": "> 50", "unit": "mg/kg"}, {"measurement": "melting point", "result": "139 to 141", "unit": "°C"}, {"measurement": "ED50", "setting": "[4]", "result": "< 50", "unit": "mg/kg"}]}
{"compound": "N[C@@H]1CCc2ccccc21", "note": "[R-AI, (R)-1-aminoindan]", "values": [{"measurement": "effectiveness when given after induction of head trauma, in words", "setting": "[5]", "result": "still effective even if given 3 hours after the induction of head trauma"}, {"measurement": "dose at which a maximal response was observed", "setting": "[6]", "result": 0.3, "unit": "mg/kg"}, {"measurement": "potentiation of stereotypic behavior (lateral head movements), in words", "setting": "[7]", "result": "significant potentiation"}, {"measurement": "% water in the brain", "setting": "[8]", "result": "81.5 ± 0.5", "unit": "%"}, {"measurement": "effect on hypokinetic syndrome, big movements, in words", "setting": "[9]", "result": "corrected the hypokinetic syndrome"}, {"measurement": "water maze performance versus hypoxia group, in words", "setting": "[10]", "result": "tended towards superior performance"}, {"measurement": "potentiation of stereotypic behavior induced by amphetamine, in words", "setting": "[11]", "result": "significant potentiation"}, {"measurement": "effect on MAO-B activity, in words", "setting": "[12]", "result": "can partially inhibit"}, {"measurement": "effect on MAO-A activity, in words", "setting": "[13]", "result": "does not have an effect on MAO-A activity"}, {"measurement": "passive avoidance performance, in words", "setting": "[14]", "result": "improved their performance to control level"}]}
